Laboratory results as given in US9139581B2 (PORTOLA PHARMACEUTICALS, INC., priority 2008, dated 2015).
Where two headings read alike, the source gives them in different places.

Columns and labels:
[1] = target: T1, full length active recombinant SYK enzyme (Homo sapiens, UniProt P43405); assay: Inhibition of Syk tyrosine phosphorylation activity (LANCE TR-FRET); format: biochemical; details: 1 nM SYK, 100 μM ATP
T1 construct: full length active recombinant SYK enzyme (Millipore, Calif.); purchased Millipore
In short: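 The reaction is quenched with buffer holding Eu-anti-phosphotyrosine and streptavidin-APC, and detection runs 1 hr at room temperature. TR-FRET is read and IC50s come from non-linear regression.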

[2] = tested on: human platelet-rich plasma (PRP); assay: Inhibition of Convulxin-mediated platelet aggregation in vitro (PRP); format: cell-based; details: Table 4, Convulxin-induced aggregation in human PRP, unit inferred
Experimental: The ability for candidate molecules to inhibit syk-mediated platelet functions are tested by measuring the inhibition the GPVI-specific agonist Convulxin-induced human platelet calcium-mobilization or aggregation. Calcium-mobilization is assessed in human washed platelets in a 96-well microtiter format.
Inhibition of Convulxin-Mediated Platelet Aggregation In Vitro
Platelet-rich plasma (PRP) is prepared by centrifugation of whole blood at 160×g for 20 minutes at room temperature. The PRP layer is removed, transferred to a new tube, and the platelet count is adjusted, if advantageous, to achieve a platelet concentration of ˜3×10^8 platelets/ml using platelet-poor plasma (PPP). PPP is prepared by centrifugation of the remaining blood sample (after removal of PRP) for 20 minutes at 800×g. This preparation of PRP can subsequently be used for aggregation assays in either a 96-well plate or standard cuvette aggregometry.
Inhibition of Convulxin-induced aggregation is determined in 96-well flat-bottom microtiter plates using a microtiter plate shaker and plate reader similar to the procedure described by Frantantoni et al., Am. J. Clin. Pathol. […] All steps are performed at room temperature. For 96-well plate aggregation using platelet-rich plasma (PRP), the total reaction volume of 0.2 ml/well includes 190 μl of PRP (˜3×10^8 platelets/ml, see above), and 5 μl of either serial dilution of test compounds in 30% DMSO or buffer (for control wells). After 20 minutes preincubation at room temperature 5 μl of 320 ng/ml Convulxin agonist solution is added to each well to give a final concentration of 8 ng/ml Convulxin. The plates are then agitated for 5 min on a microtiter plate shaker and the 5 minute reading is obtained in the microtitre plate reader (Softmax, Molecular Devices, Menlo Park, Calif.). Aggregation is calculated from the decrease of OD at 650 nm at t=5 minutes. IC50s were derived by non-linear regression analysis.
Inhibition of Convulxin-induced aggregation was also determined for cuvette light transmittance aggregation assays, serial dilutions (1:2) of test compounds were prepared in 30% DMSO in a 96 well V-bottom plate (final DMSO concentration in the cuvette was 0.3%). […] IC50s were derived by non-linear regression analysis.

[3] = Table 3, read-out: Syk IC50 code

IC50 [1, 3]	SMILES	IC50 ([1]; Table 4, read-out: syk IC50)	IC50 [2]
–	CC(=O)N1CCN(c2ccc(Nc3nc(N4CCC[C@H](N)C4)c4cc[nH]c4n3)cc2)CC1 [(S)-1-(4-(4-(4-(3-aminopiperidin-1-yl)-7H-pyrrolo[2,3-d]pyrimidin-2-ylamino)phenyl)piperazin-1-yl)ethanone]	100 to 1000 nM	13800 nM
–	NC(=O)C1CCCN(c2nc(Nc3ccc(N4CCNCC4)cc3)nc3[nH]ccc23)C1 (stereo not drawn) [Example 8, 1-(2-(4-(piperazin-1-yl)phenylamino)-7H-pyrrolo[2,3-d]pyrimidin-4-yl)piperidine-3-carboxamide]	100 to 1000 nM	25300 nM
–	CC(=O)N1CCN(c2ccc(Nc3nc(N4CCCC(C(N)=O)C4)c4cc[nH]c4n3)cc2)CC1 (stereo not drawn) [Example 9, 1-(2-(4-(4-acetylpiperazin-1-yl)phenylamino)-7H-pyrrolo[2,3-d]pyrimidin-4-yl)piperidine-3-carboxamide]	100 to 1000 nM	12300 nM
–	NCC1CCN(c2nc(Nc3ccc(N4CCNCC4)cc3)nc3[nH]ccc23)CC1 [Example 10, 4-(4-(aminomethyl)piperidin-1-yl)-N-(4-(piperazin-1-yl)phenyl)-7H-pyrrolo[2,3-d]pyrimidin-2-amine]	1 to 10 nM	33200 nM
–	CC(=O)N1CCN(c2ccc(Nc3nc(N4CCC(CN)CC4)c4cc[nH]c4n3)cc2)CC1 [Example 11, 1-(4-(4-(4-(4-(aminomethyl)piperidin-1-yl)-7H-pyrrolo[2,3-d]pyrimidin-2-ylamino)phenyl)piperazin-1-yl)ethanone]	1 to 10 nM	5280 nM
–	NCC1CCN(c2nc(Nc3ccc4cn[nH]c4c3)ncc2F)CC1 [Example 16, N-(4-(4-(aminomethyl)piperidin-1-yl)-5-fluoropyrimidin-2-yl)-1H-indazol-6-amine]	10 to 100 nM	296 nM
100 to 1000 nM	NCC1CCN(c2nc(Nc3ccc4c(c3)CCC(=O)N4)ncc2C2CC2)CC1 [Example 139, 6-(4-(4-(aminomethyl)piperidin-1-yl)-5-cyclopropylpyrimidin-2-ylamino)-3,4-dihydroquinolin-2(1H)-one]	–	–
100 to 1000 nM	N[C@H]1CC[C@@H](Nc2nc(Nc3ccc4c(c3)CCC(=O)N4)ncc2F)CC1 [Example 140, 6-(4-((1s,4s)-4-aminocyclohexylamino)-5-fluoropyrimidin-2-ylamino)-3,4-dihydroquinolin-2(1H)-one]	–	–
100 to 1000 nM	NC(=O)c1ccc(Nc2ncc(F)c(N[C@H]3CC[C@@H](N)CC3)n2)cc1 [Example 141, 4-(4-((1s,4s)-4-aminocyclohexylamino)-5-fluoropyrimidin-2-ylamino)benzamide]	–	–
100 to 1000 nM	CC(=O)N1CCN(c2ccc(Nc3ncc(F)c(N[C@H]4CC[C@@H](N)CC4)n3)cc2)CC1 [Example 142, 1-(4-(4-(4-((1s,4s)-4-aminocyclohexylamino)-5-fluoropyrimidin-2-ylamino)phenyl)piperazin-1-yl)ethanone]	–	–
> 1000 nM	N[C@H]1CC[C@@H](Nc2nc(Nc3ccc4c(c3)CCC(=O)N4)ncc2-c2ccncc2)CC1 [Example 143, 6-(4-((1s,4s)-4-aminocyclohexylamino)-5-(pyridin-4-yl)pyrimidin-2-ylamino)-3,4-dihydroquinolin-2(1H)-one]	–	–
10 to 100 nM	N[C@H]1CC[C@@H](Nc2nc(Nc3ccc4c(c3)CCC(=O)N4)ncc2C2CC2)CC1 [Example 144, 6-(4-((1s,4s)-4-aminocyclohexylamino)-5-cyclopropylpyrimidin-2-ylamino)-3,4-dihydroquinolin-2(1H)-one]	–	–

SMILES	IC50 [1, 3]	IC50 ([1]; Table 4, read-out: syk IC50)	IC50 [2]
CC(=O)N1CCN(c2ccc(Nc3nc(N4CCC(CN)CC4)c4c(C#N)c[nH]c4n3)cc2)CC1 [Example 14, 2-(4-(4-acetylpiperazin-1-yl)phenylamino)-4-(4-(aminomethyl)piperidin-1-yl)-7H-pyrrolo[2,3-d]pyrimidine-5-carbonitrile]	10 to 100 nM	10 to 100 nM	50000 nM
CC(=O)N1CCN(c2ccc(Nc3nc(N4CCC(CN)CC4)c4nc[nH]c4n3)cc2)CC1 [Example 15, 1-(4-(4-(6-(4-(aminomethyl)piperidin-1-yl)-9H-purin-2-ylamino)phenyl)piperazin-1-yl)ethanone]	10 to 100 nM	10 to 100 nM	50000 nM
